Experiment: GoMiner gene ontology analysis of differentially regulated genes
Design: species or system human
[1] = Biological process: Bbiological—process unknown, GO 0000004, Total 232
[2] = Biological process: Cell adhesion, GO 0007155, Total 361
[3] = Biological process: Cell death, GO 0008219, Total 272
[4] = Biological process: Cell differentiation, GO 0030154, Total 106
[5] = Biological process: Cell motility, GO 0006928, Total 222
[6] = Biological process: Cell organization and biogenesis, GO 0016043, Total 282
[7] = Biological process: Cell proliferation, GO 0008283, Total 667
[8] = Biological process: Cell-cell signaling, GO 0007267, Total 365
[9] = Biological process: Metabolism, GO 0008152, Total 3192
[10] = Biological process: Response to endogenous stimulus, GO 0009719, Total 134
[11] = Biological process: Response to extracellular stimulus, GO 0009991, Total 10
[12] = Biological process: Response to stress, GO 0006950, Total 501
[13] = Biological process: Signal transduction, GO 0007165, Total 1321
[14] = Biological process: Transport, GO 0006810, Total 873
[15] = Biological process: alcohol metabolism, GO 0006066, Total 151
[16] = Biological process: amine metabolism, GO 0009308, Total 175
[17] = Biological process: amino acid and derivative metabolism, GO 0006519, Total 149
[18] = Biological process: anti-apoptosis, GO 0006916, Total 59
[19] = Biological process: apoptotic program, GO 0008632, Total 26
[20] = Biological process: biosynthesis, GO 0009058, Total 525
[21] = Biological process: carbohydrate metabolism, GO 0005975, Total 228
[22] = Biological process: catabolism, GO 0009056, Total 450
[23] = Biological process: cell cycle, GO 0007049, Total 442
[24] = Biological process: cell migration, GO 0016477, Total 39
[25] = Biological process: cell surface receptor linked signal transduction, GO 0007166, Total 588
[26] = Biological process: cell—cell adhesion, GO 0016337, Total 124
[27] = Biological process: cytokinesis, GO 0000910, Total 64
[28] = Biological process: cytoplasm organization and biogenesis, GO 0007028, Total 166
[29] = Biological process: electron transport, GO 0006118, Total 150
[30] = Biological process: energy pathways, GO 0006091, Total 158
[31] = Biological process: induction of apoptosis, GO 0006917, Total 83
[32] = Biological process: induction of programmed cell death, GO 0012502, Total 83
[33] = Biological process: intracellular signaling cascade, GO 0007242, Total 444
[34] = Biological process: intracellular transport, GO 0046907, Total 258
[35] = Biological process: ion transport, GO 0006811, Total 320
[36] = Biological process: lipid metabolism, GO 0006629, Total 299
[37] = Biological process: lymphocyte differentiation, GO 0030098, Total 22
[38] = Biological process: nuclear organization and biogenesis, GO 0006997, Total 109
[39] = Biological process: nucleobase, nucleoside, nucleotide and nucleic acid metabolism, GO 0006139, Total 1351
[40] = Biological process: organic acid metabolism, GO 0006082, Total 226
[41] = Biological process: phosphorus metabolism, GO 0006793, Total 423
[42] = Biological process: protein metabolism, GO 0019538, Total 1170
[43] = Biological process: protein transport, GO 0015031, Total 223
[44] = Biological process: regulation of cell proliferation, GO 0042127, Total 175
[45] = Biological process: regulation of metabolism, GO 0019222, Total 32
[46] = Biological process: response to DNA damage stimulus (under Response to endogenous stimulus), GO 0006974, Total 133
[47] = Biological process: response to DNA damage stimulus (under Response to stress), GO 0006974, Total 133
[48] = Biological process: response to abiotic stimulus, GO 0009628, Total 224
[49] = Biological process: response to biotic stimulus, GO 0009607, Total 552
[50] = Biological process: response to external stimulus, GO 0009605, Total 813
[51] = Biological process: response to pest/pathogen/parasite, GO 0009613, Total 287
[52] = Biological process: response to wounding, GO 0009611, Total 173
[53] = Biological process: taxis, GO 0042330, Total 77
[54] = Biological process: vesicle-mediated transport, GO 0016192, Total 167

Nc1ncn([C@H]2C[C@H](O)[C@@H](CO)O2)c(=O)n1 [5-aza-dC, 5-aza-2′-deoxycytidine]
41: 5-aza-dC Up [39]
6: 5-aza-dC Up [1] | 5-aza-dC Down [13] | 5-aza-dC Down [20] | 5-aza-dC Up [34] | 5-aza-dC Down [39]
21: 5-aza-dC Up [12]
12: 5-aza-dC Up [6] | 5-aza-dC Up [14]
3: 5-aza-dC Down [12] | 5-aza-dC Up [16] | 5-aza-dC Up [17] | 5-aza-dC Up [19] | 5-aza-dC Up [31] | 5-aza-dC Up [32] | 5-aza-dC Up [37] | 5-aza-dC Up [40] | 5-aza-dC Down [44]
30: 5-aza-dC Up [50]
33: 5-aza-dC Up [13]
18: 5-aza-dC Up [7] | 5-aza-dC Down [9]
2: 5-aza-dC Down [1] | 5-aza-dC Down [3] | 5-aza-dC Up [10] | 5-aza-dC Down [15] | 5-aza-dC Down [21] | 5-aza-dC Down [22] | 5-aza-dC Down [25] | 5-aza-dC Down [27] | 5-aza-dC Down [29] | 5-aza-dC Down [30] | 5-aza-dC Down [33] | 5-aza-dC Up [35] | 5-aza-dC Up [46] | 5-aza-dC Up [47] | 5-aza-dC Down [50] | 5-aza-dC Up [54] | 5-aza-dC Down (Cellular component: Cellular—component unknown, GO 0008372, Total 266)
0: 5-aza-dC Down [2] | 5-aza-dC Down [6] | 5-aza-dC Down [8] | 5-aza-dC Down [11] | 5-aza-dC Down [18] | 5-aza-dC Down [24] | 5-aza-dC Down [26] | 5-aza-dC Up [27] | 5-aza-dC Down [28] | 5-aza-dC Down [31] | 5-aza-dC Down [32] | 5-aza-dC Down [35] | 5-aza-dC Down [37] | 5-aza-dC Down [38] | 5-aza-dC Down [45] | 5-aza-dC Down [48] | 5-aza-dC Down [53] | 5-aza-dC Down [54]
78: 5-aza-dC Up [9]
26: 5-aza-dC Up [49]
9: 5-aza-dC Up [22] | 5-aza-dC Up [41] | 5-aza-dC Down [42]
5: 5-aza-dC Up [4] | 5-aza-dC Up [18] | 5-aza-dC Down [41]
17: 5-aza-dC Up [51]
1: 5-aza-dC Down [4] | 5-aza-dC Down [5] | 5-aza-dC Up [5] | 5-aza-dC Down [10] | 5-aza-dC Up [11] | 5-aza-dC Down [14] | 5-aza-dC Down [16] | 5-aza-dC Down [17] | 5-aza-dC Down [19] | 5-aza-dC Up [24] | 5-aza-dC Up [26] | 5-aza-dC Up [28] | 5-aza-dC Up [30] | 5-aza-dC Down [34] | 5-aza-dC Down [36] | 5-aza-dC Down [40] | 5-aza-dC Down [43] | 5-aza-dC Up [45] | 5-aza-dC Down [46] | 5-aza-dC Down [47] | 5-aza-dC Down [49] | 5-aza-dC Down [51] | 5-aza-dC Down [52]
15: 5-aza-dC Up [3]
8: 5-aza-dC Up [44] | 5-aza-dC Up [48]
14: 5-aza-dC Up [23] | 5-aza-dC Up [25] | 5-aza-dC Up [52]
27: 5-aza-dC Up [42]
10: 5-aza-dC Up [33]
7: 5-aza-dC Up [2] | 5-aza-dC Up [20] | 5-aza-dC Down [23] | 5-aza-dC Up [43] | 5-aza-dC Up [53]
11: 5-aza-dC Down [7] | 5-aza-dC Up [8] | 5-aza-dC Up [38]
4: 5-aza-dC Up [15] | 5-aza-dC Up [21] | 5-aza-dC Up [29] | 5-aza-dC Up [36]
